Test results reported in patent US20170216297A1, “EFFICIENT INHIBITION OF HSP27” (TECHNISCHE UNIVERSITAET DRESDEN, priority 2014, published 2017).
pKd: −log10 of the molar value.

Columns and labels:
HSP27 [1] = target: T1, HSP27 (Homo sapiens, UniProt P04792); assay: Capillary electrophoresis of the CS protein precipitates (precipitated citrate synthase as measure of HSP27 inhibition); format: biochemical; conditions: 10 μmol/L; 43° C. for 70 minutes; 750 μmol/L BVDU set at 1
Experimental: Since the heat-denatured protein aggregates of the citrate synthase from Example 1 are not water-soluble, these can be separated completely from the supernatant by means of centrifugation at room temperature at 16,000×g, 10 min. By using capillary electrophoresis, the compositions of the separated precipitates can be shown and quantified. The relative quantity of protein of precipitated citrate synthase serves as a measure of the efficacy of the test substances.
In each case, 481 nmol/L HSP27 and 1.44 μmol/L citrate synthase in 40 mmol/L HEPES buffer, pH 7.4, were employed. The relative quantity of protein of the precipitated citrate synthase in each case was normalized using a defined quantity of BSA as internal standard. The relative quantity of protein that precipitated when using 750 μmol/L BVDU was set at 1. The other test substances (2 representatives of phenothiazine derivatives of general formula (V), 2 representatives of purine derivatives of formula (I) or (II)) were each employed at a concentration of 10 μmol/L.
Since the heat-denatured protein aggregates of the citrate synthase from Example 2 are not water-soluble, these can be separated completely from the supernatant by means of centrifugation at room temperature at 16,000×g, 10 min. By using capillary electrophoresis, the compositions of the separated precipitates can be shown and quantified. The relative quantity of protein of precipitated citrate synthase serves as a measure of the efficacy of the test substances.
In each case, 481 nM HSP27 and 1.44 μmol/L citrate synthase in 40 mmol/L HEPES buffer, pH 7.4, were employed. The relative quantity of protein of the precipitated citrate synthase in each case was normalized using a defined quantity of BSA as internal standard. The relative quantity of protein that precipitated when using 750 μmol/L BVDU was set at 1. The other test substances (2 representatives of phenothiazine derivatives of general formula (V), 2 representatives of thymine derivatives of formula (I) or (II)) were employed at a concentration of 10 μmol/L in each case.
Otherwise, the experiments were performed as described above: […]

HSP27 [2] = target: T1, HSP27; assay: Bio-layer interferometry (ForteBio Octet Red 384, biotinylated HSP27 on SSA sensors); format: binding; conditions: analytes 1.23-300 μM/l, PBST 0.1% Tween 20 plus 3% DMSO; read-out: Dissociation constant KD
Description: Bio-layer interferometry is a technique for detecting biomolecular interactions. It is an analytical technique that measures the optical interference of white light which is reflected by two surfaces: in each case, one surface consists of a layer of the immobilized target protein on the tip of the biosensor and one is an internal reference surface. The binding of ligands to the target protein alters the interference pattern and can be measured in real time.
For the measurements, an instrument of the ForteBio Octet Red 384 brand was used. The target protein HSP27 was biotinylated and bound to the appropriate sensors (SSA). […] The purine derivatives of general formula (I) or (II) pre-identified by means of in silico screening are employed for these measurements in a concentration range (KD) of between 333 μmol/L and 10 nmol/L.
For measurements by bio-layer interferometry, biotinylated HSP27 protein was first bound to Super-Streptavidin sensors (SSA, Fortebio). The loaded sensors were then incubated (“quenched”) with biocytin. As reference, unloaded SSA sensors were incubated with biocytin. In the case of a specific binding to HSP27 of the analyte to be measured, the loaded HSP27 sensor generates a stronger signal (response) than the concurrent reference sensor. After the “baseline” has been established by incubation with the reaction buffer (PBST 0.1% Tween 20 plus 3% DMSO), first the association and then the dissociation of the respective analyte is measured in real time. The analytes were measured in increasing concentrations in each case: 1.23-3.7-11.11-33.33-100-300 μM/l.

T1 sequence (P04792 whole entry): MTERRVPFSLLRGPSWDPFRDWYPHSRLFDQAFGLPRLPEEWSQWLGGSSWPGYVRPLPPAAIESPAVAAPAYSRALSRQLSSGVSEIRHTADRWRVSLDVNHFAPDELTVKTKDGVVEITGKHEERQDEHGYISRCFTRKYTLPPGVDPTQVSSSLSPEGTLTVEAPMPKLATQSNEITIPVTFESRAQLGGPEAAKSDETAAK

| Structure (SMILES) | Rel. quantity of protein prec. CS (HSP27 [1]) | pKd (HSP27 [2]) |
| --- | --- | --- |
| Cc1cn(C/C=C\CNC(=O)Cc2ccc3ccccc3c2)c(=O)[nH]c1=O [N-[(2Z)-4-(5-Methyl-2,4-dioxo-3H-pyrimidin-1-yl)but-2-en-1-yl]-2-(naphthalen-2-yl)acetamide] | 0.83 |  |
| Cc1cn(C2C[C@H](n3cc(-c4cccc(Br)c4)nn3)[C@@H](CO)O2)c(=O)[nH]c1=O (stereo partly drawn) [1-[(4S,5S)-4-[4-(3-Bromophenyl)-1H-1,2,3-triazol-1-yl]-5-(hydroxymethyl)oxolan-2-yl]-5-methyl-1,2,3,4-tetrahydropyrimidine-2,4-dione] | 0.81 |  |
| Cc1cn(CCCCNC(=O)Cc2ccc3ccccc3c2)c(=O)[nH]c1=O [N-[4-(5-Methyl-2,4-dioxo-3H-pyrimidin-1-yl)butyl]-2-(naphthalen-2-yl)acetamide] | 0.75 |  |
| Cc1cn([C@H]2C[C@H](n3cc(C(C)(C)C)nn3)[C@@H](CO)O2)c(=O)[nH]c1=O [3′-Deoxy-3′-[4-(2-methyl-2-propanyl)-1H-1,2,3-triazol-1-yl]thymidine] | 0.61 |  |
| Cc1cn(C2C[C@H](n3cc(-c4ccc(Br)cc4)nn3)[C@@H](CO)O2)c(=O)[nH]c1=O (stereo partly drawn) [1-[(4S,5S)-4-[4-(4-Bromophenyl)-1,2,3-triazol-1-yl]-5-(hydroxymethyl)oxolan-2-yl]-5-methyl-3H-pyrimidine-2,4-dione] | 0.64 |  |
| O=c1nc(Nc2cccc(CO)c2)[nH]c2nc[nH]c12 [2-(3-Hydroxymethylphenylamino)-3,7-dihydropurin-6-one] |  | 3.15 |
| Cc1cn(C/C=C\CNC(=O)c2cccc3ccccc23)c(=O)[nH]c1=O [N-[(2Z)-4-(5-Methyl-2,4-dioxo-3H-pyrimidin-1-yl)but-2-en-1-yl]naphthalene-1-carboxamide] | 0.78 |  |
| Cc1cn([C@H]2C[C@H](n3cc(CCc4ccccc4)nn3)[C@@H](CO)O2)c(=O)[nH]c1=O [3′-Deoxy-3′-[4-(2-phenylethyl)-1H-1,2,3-triazol-1-yl]-thymidine] | 0.74 |  |
| Cc1cn([C@H]2C[C@H](n3cc(-c4ccccc4)nn3)[C@@H](CO)O2)c(=O)[nH]c1=O [3′-Deoxy-3′-(4-phenyl-1H-1,2,3-triazol-1-yl)thymidine] | 0.79 |  |
| Cc1cn(C/C=C\CNC(=O)C2c3ccccc3-c3ccccc32)c(=O)[nH]c1=O [N-[(2Z)-4-(5-Methyl-2,4-dioxo-3H-pyrimidin-1-yl)but-2-en-1-yl]-9H-fluorene-9-carboxamide] | 0.86 |  |
| O=c1[nH]c(=O)n([C@H]2C[C@H](O)[C@@H](CO)O2)cc1-c1ccccc1 [5-Phenyl-2′-deoxyuridine] |  | 4.22 |
| Cc1cn(C/C=C\CNC(=O)C(c2ccccc2)c2ccccc2)c(=O)[nH]c1=O [N-[(2Z)-4-(5-Methyl-2,4-dioxo-3H-pyrimidin-1-yl)but-2-en-1-yl]-2,2-diphenylacetamide] | 0.82 |  |
| CCCCCc1cn([C@H]2C[C@H](n3cc(C)c(=O)[nH]c3=O)O[C@@H]2CO)nn1 [3′-Deoxy-3′-(4-pentyl-1H-1,2,3-triazol-1-yl)thymidine] | 0.70 |  |
| Cc1cn([C@H]2C[C@H](n3cc(-c4ccc(Cl)cc4)nn3)[C@@H](CO)O2)c(=O)[nH]c1=O [3′-[4-(4-Chlorophenyl)-1H-1,2,3-triazol-1-yl]-3′-deoxythymidine] | 0.67 |  |
| Cc1cn(CCCCNC(=O)Cc2ccc(-c3ccccc3)cc2)c(=O)[nH]c1=O [N-[4-(5-Methyl-2,4-dioxo-3H-pyrimidin-1-yl)butyl]-2-(4-phenylphenyl)acetamide] | 0.67 |  |
| COc1ccc(-c2cn([C@H]3CC(n4cc(C)c(=O)[nH]c4=O)O[C@@H]3CO)nn2)cc1 (stereo partly drawn) [1-[(4S,5S)-5-(Hydroxymethyl)-4-[4-(4-methoxyphenyl)-1,2,3-triazol-1-yl]oxolan-2-yl]-5-methyl-3H-pyrimidine-2,4-dione] | 0.75 |  |
| Cc1cn(CCCCNC(=O)C(c2ccccc2)c2ccccc2)c(=O)[nH]c1=O [N-[4-(5-Methyl-2,4-dioxo-3H-pyrimidin-1-yl)butyl]-2,2-diphenylacetamide] | 0.79 |  |
| O=C(NC/C=C\Cn1ccc(=O)[nH]c1=O)C1c2ccccc2OC2C=CC=CC21 (stereo not shown) [N-[(2Z)-4-(2,4-Dioxo-3H-pyrimidin-1-yl)but-2-en-1-yl]-9,9a-dihydro-4aH-xanthene-9-carboxamide] | 0.85 |  |
| CCCCc1cn([C@H]2C[C@H](n3cc(C)c(=O)[nH]c3=O)O[C@@H]2CO)nn1 [3′-(4-Butyl-1H-1,2,3-triazol-1-yl)-3′-deoxythymidine] | 0.76 |  |
| CCCc1cn([C@H]2C[C@H](n3cc(C)c(=O)[nH]c3=O)O[C@@H]2CO)nn1 [3′-Deoxy-3′-(4-propyl-1H-1,2,3-triazol-1-yl)thymidine] | 0.79 |  |
| Cc1cn(CCCCNC(=O)C2c3ccccc3Oc3ccccc32)c(=O)[nH]c1=O [N-[4-(5-Methyl-2,4-dioxo-3H-pyrimidin-1-yl)butyl]-9H-xanthene-9-carboxamide] | 0.68 |  |
| Cc1cn([C@H]2C[C@H](n3cc(-c4ccccn4)nn3)[C@@H](CO)O2)c(=O)[nH]c1=O [3′-Deoxy-3′-[4-(2-pyridinyl)-1H-1,2,3-triazol-1]-yl]thymidine] | 0.84 |  |
| Cc1cn(CCCCNC(=O)C2c3ccccc3-c3ccccc32)c(=O)[nH]c1=O [N-[4-(5-Methyl-2,4-dioxo-3H-pyrimidin-1-yl)butyl]-9H-fluorene-9-carboxamide] | 0.58 |  |
| Cc1cn(C/C=C\CNC(=O)Cc2cccc3ccccc23)c(=O)[nH]c1=O [N-[(2Z)-4-(5-Methyl-2,4-dioxo-3H-pyrimidin-1-yl)but-2-en-1-yl]-2-(naphthalen-1-yl)acetamide] | 0.81 |  |
| Cc1cn([C@H]2C[C@H](n3cc(CC4CCCC4)nn3)[C@@H](CO)O2)c(=O)[nH]c1=O [3′-[4-(Cyclopentylmethyl)-1H-1,2,3-triazol-1-yl]-3′-deoxythymidine] | 0.66 |  |
| O=C(Cc1ccc(-c2ccccc2)cc1)NC/C=C\Cn1ccc(=O)[nH]c1=O [N-[(2Z)-4-(2,4-Dioxo-3H-pyrimidin-1-yl)but-2-en-1-yl]-2-(4-phenylphenyl)acetamide] | 0.88 |  |
| Cc1cn([C@H]2C[C@H](n3cc(-c4ccc(Cl)c(Cl)c4)nn3)[C@@H](CO)O2)c(=O)[nH]c1=O [3′-Deoxy-3′-[4-(3,4-dichlorophenyl)-1H-1,2,3-triazol-1-yl]-thymidine] | 0.86 |  |
| Cc1cn([C@H]2C[C@H](n3cc(-c4ccc(F)cc4)nn3)[C@@H](CO)O2)c(=O)[nH]c1=O [3′-Deoxy-3′-[4-(4-fluorophenyl)-1H-1,2,3-triazol-1-yl]-thymidine] | 0.66 |  |
